According to patent US20030207813A1, “Retroviral protease inhibitor combinations” (priority 1995, published 2003):
Values after ≈ are worked out from the molar mass of the structure shown. Read-outs that look alike come from different tables or passages of the source.

Assays:
[1] = tested on: RFR (resistant strains selected from RF against Example 1); assay: CEM-T4 cell infection assay, reverse transcriptase readout, resistant isolate RFR; type: cell-based, HIV-1; settings: Human immunodeficiency virus 1, CEM-T4, 168 h, 7 days, read-out: Virus Isolate (EC50 ng/mL) RFR
Excerpt: (§1) RF represents the HIV-1 strain HIV-LRF and RFR represents a mixture of resistant strains obtained by selection of RF against the compound of Example 1. RFR comprises a mixture of viral strains having protease genotypes of G48V (14/40 clones); G48V, V82A (18/40 clones); G48V, L90S (2/40 clones); G48V, 154T, V82A (1/40 clones); G48M (1/40 clones); G48V, Q61H (1/40 clones); V13I, G48V (1/40 clones); G48V, F53L, V82A (1/40 clones); and G48V, V82A, C95Y (1/40 clones). RFR2 represents a mixture of resistant strains obtained by cloning RFR by three rounds of growth at limiting dilution. RFR2 comprises a mixture of viral strains having protease genotypes of G48V, V82A (13/15 clones); G17E, G48V, V82A (1/15 clones); and G48V, V82A, N37D, N88D (1/15 clones). RFRR represents a mixture of resistant strains obtained by selection of RF against the compounds of Examples 1 and 2 and then cloning by three rounds of growth at limiting dilution. RFRR comprises a mixture of viral strains having protease genotypes of G48V, 154T, L63P, V82A (7/9 clones); G48V, 154T, L63P, V82A, N88S (1/9 clones); and G48V, 154T, L63P, G73M, V82A (1/9 clones). SF162 represents the HIV-1 strain SF-162 and SF162R represents a mixture of resistant strains obtained by selection of SF162 against the compound of Example 1. SF162R comprises a mixture of viral strains having protease genotypes of M461, F53L, L63P, A71V, N88D (2/3 clones); and M46I, F53L, L63P, A71V, N88D, Q92R (1/3 clones). 89-959 represents the HIV-1 strain 89-959 and 89-959R represents a mixture of resistant strains obtained by selection of 89-959 against the compound of Example 2. 89-959R comprises a mixture of viral strains having protease genotypes of N88S (4/5 clones); and D25N, T26A, D30N, D37N, R41K, G73D, R87K, N88S (1/4 clones). NL4 represents the HIV-1 strain HIV-1NL4-3. NL4(G48V) represents a strain having a synthetically generated site-directed mutation in the protease from glycine to valine at amino acid position number 48. NL4(I84V) represents a strain having a synthetically generated site-directed mutation in the protease from isoleucine to valine at amino acid position number 84. NL4(R8Q,M46I) represents a strain having synthetically generated site-directed mutations in the protease from arginine to glutamine at amino acid position number 8 and methionine to isoleucine at amino acid position number 46. NL4(P22-538) represents a mixture of resistant strains obtained by selection of HIV-1NL4-3 against the compound of Example 10 after 22 passages comprising protease genotypes M46I, L63P, A71V, V82F, I84V (4/10); M46I, L63P, V82F, I84V (3/10); and M46I, A71V, V82F, I84V (3/10). NL4(P37-538) represents resistant strains obtained by selection of HIV-1NL4-3 against the compound of Example 10 after 37 passages comprising protease genotype M46I, L63P, A71V, 184A. NL4(538/524) represents resistant strains obtained by selection of NL4(P22-538) against the compound of Example 5 after 24 passages comprising protease genotype M46I, L63P, A71V, 184A. NL4(538/P7-AG) represents a mixture of resistant strains obtained by selection of NL4(P22-538) against the compound of Example 12 after 7 passages comprising protease genotypes M46I, L63P, A71V, 184A; and V321, V82I. NL4(538/P24-AG) represents resistant strains obtained by selection of NL4(P22-538) against the compound of Example 12 after 24 passages comprising protease genotype M46I, L63P, A71V, 184A. NLA(P19-003) represents resistant strains obtained by selection of HIV-1^NL4-3 against the compound of Example 9 after 19 passages comprising protease genotype R8K, M46I. NL4(P34-003) represents resistant strains obtained by selection of HIV-1^NL4-3 against the compound of Example 9 after 34 passages comprising protease genotype R8K, M46I, L63P, A71V, L90M.
(§2) The viral isolate resistance results summarized in Tables 4-6 were generated according to the following assay procedure or minor modifications thereof. Assays are performed in 96-well tissue culture plates. […]

[2] = tested on: RFR2 (RFR cloned by three rounds of limiting dilution); assay: CEM-T4 cell infection assay, reverse transcriptase readout, resistant isolate RFR2; type: cell-based, HIV-1; settings: Human immunodeficiency virus 1, 168 h, Table 6, CEM-T4 cells, 7 days, read-out: Virus Isolate (EC50 ng/mL) RFR2
Excerpt: as §1, §2

Compound `CNCC(=O)N[C@H](C(=O)N[C@@H](Cc1ccccc1)[C@H](O)CN(CCC(C)C)C(=O)NC(C)(C)C)C(C)(C)C` [Example 2, (2R,3S)-3-(N-methylaminoacetyl-L-tert-butylglycinyl)amino-1-(N-isoamyl-N-(tert-butylcarbamoyl))amino-4-phenyl-2-butanol] has an EC50 ([1]; Table 4, CEM-T4 cells) of 8 ng/mL (≈ 0.015 µM) and an EC50 [2] of 367 ng/mL (≈ 0.688 µM).
For `CC(C)(C)NC(=O)[C@@H]1CC2CCCC[C@@H]2CN1C[C@@H](O)[C@H](Cc1ccccc1)NC(=O)[C@H](CC(N)=O)NC(=O)c1ccc2ccccc2n1` (stereo in doubt) [Example 6, N-tert-Butyl decahydro-2-[2(R)-hydroxy-4-phenyl-3(S)-[[N-(2-quinolylcarbonyl)-L-asparaginyl]amino]butyl]-(4aR,8aS)-isoquinoline-3(S)-carboxamide], the EC50 ([1]; Table 4, CEM-T4 cells) was 15 ng/mL (≈ 0.0224 µM) and the EC50 [2] was 31 ng/mL (≈ 0.0462 µM).
In the case of `CC(C)CN(C[C@@H](O)[C@H](Cc1ccccc1)NC(=O)[C@H](CC(N)=O)NC(=O)c1ccc2ccccc2n1)S(=O)(=O)NC(C)(C)C` [Example 8, N-[3-[N^2-[N^1-(1,1-dimethylethyl)aminosulfonyl]-N^2-(2-methylpropyl)amino]-2R-hydroxy-1S-(phenylmethyl)propyl]-2S-[(2-quinolinylcarbonyl)amino]butanediamide], the EC50 ([1]; Table 5, CEM-T4 cells) is reported as 1 ng/mL (≈ 0.00156 µM).
Work on `CC(C)CCN(C[C@@H](O)[C@H](Cc1ccccc1)NC(=O)[C@H](CC(N)=O)NC(=O)c1ccc2ccccc2n1)C(=O)NC(C)(C)C` (relative stereo) [Example 7, [1S-[1R*(R*),2S*]]-N^1-[3-[[[(1,1-dimethylethyl)amino]carbonyl](3-methylbutyl)amino]-2-hydroxy-1-(phenylmethyl)propyl]-2-[(2-quinolinylcarbonyl)amino]-butanediamide] yielded an EC50 ([1]; Table 5, CEM-T4 cells) of 78 ng/mL (≈ 0.126 µM).
`CC(C)(C)NC(=O)[C@@H]1CN(Cc2cccnc2)CCN1C[C@@H](O)C[C@@H](Cc1ccccc1)C(=O)N[C@H]1c2ccccc2C[C@H]1O` [Example 5, N-(2(R)-Hydroxy-1(S)-indanyl)-2(R)-phenylmethyl-4(S)-hydroxy-5-(1-(4-(3-pyridylmethyl)-2(S)-N′-(t-butylcarboxamido)-piperazinyl))-pentaneamide] showed an EC50 ([1]; Table 4, CEM-T4 cells) of 7 ng/mL (≈ 0.0114 µM) and an EC50 [2] of 57 ng/mL (≈ 0.0929 µM).
`CC(C)CN(C[C@@H](O)[C@H](Cc1ccccc1)NC(=O)[C@H](CC(N)=O)NC(=O)c1ccc2ccccc2n1)C(=O)NC(C)(C)C` (relative stereo) [Example 1, [1S-[1R*(R*),2S*]]-N^1-[3-[[[(1,1-dimethylethyl)amino]carbonyl])2-methylpropyl)amino]-2-hydroxy-1-(phenylmethyl)propyl]-2-[(2-quinolinylcarbonyl)amino]-butanediamide] gave an EC50 ([1]; Table 4, CEM-T4 cells) of 223 ng/mL (≈ 0.369 µM), an EC50 ([1]; Table 5, CEM-T4 cells) of 394 ng/mL (≈ 0.652 µM) and an EC50 [2] of 880 ng/mL (≈ 1.46 µM).
